Consider four compounds from patent US20070249635A1, “Fungicidal Mixtures Based on a Triazolopyrimidine Derivative and a Conazole” (BASF Aktiengesellschaft, priority 2003, published 2007).

In the experiment the test system is Plasmopara viticola. Briefly: activity against peronospora of grapevines caused by Plasmopara viticola (protective spray on potted vines, cultivar Riesling). The format is in vivo. The settings on record: individual active compound, untreated control 90% infection. Here is the method:
The active compounds, separately or jointly, were prepared as a stock solution comprising 0.25% by weight of active compound in acetone or DMSO. 1 % by weight of the emulsifier Uniperol® EL (wetting agent having emulsifying and dispersant action based on ethoxylated alkylphenols) was added to this solution, and the mixture was diluted with water to the desired concentration.
Use example—activity against peronospora of gravevines caused by Plasmopara viticola
Leaves of potted vines of the cultivar “Riesling” were sprayed to runoff point with an aqueous suspension having the concentration of active compound stated below. The next day, the undersides of the leaves were inoculated with an aqueous zoospore suspension of Plasmopara viticola. The grapevines were then initially placed in a water-vapor-saturated chamber at 24° C. for 48 hours and then in a greenhouse at 20-30° C. for 5 days. After this period of time, the plants were again placed in a humid chamber for 16 hours to promote sporangiophore eruption. The extent of the development of the disease on the undersides of the leaves was then determined visually.
The visually determined percentages of infected leaf areas were converted into efficacies as % of the untreated control:
The efficacy (E) is calculated as follows using Abbot's formula: E=(1−α/β)·100 • α corresponds to the fungicidal infection of the treated plants in % and • β corresponds to the fungicidal infection of the untreated (control) plants in %
An efficacy of 0 means that the infection level of the treated plants corresponds to that of the untreated control plants; an efficacy of 100 means that the treated plants were not infected.
The expected efficacies of combinations of active compounds were determined using Colby's formula (Colby, S.R. “Calculating synergistic and antagonistic responses of herbicide combinations”, Weeds, 15, 20-22, 1967) and compared with the observed efficacies. Colby's formula: E=x+y−x·y/100 • E expected efficacy, expressed in % of the untreated control, when using the mixture of the active compounds A and B at the concentrations a and b • x efficacy, expressed in % of the untreated control, when using the active compound A at the concentration a • y efficacy, expressed in % of the untreated control, when using the active compound B at the concentration b

With `CC1CCN(c2c(-c3c(F)cccc3Cl)c(Cl)nc3ncnn23)CC1` [A], the “Efficacy in % of the untreated control” value (4 ppm in the spray liquor) came out at 11%.

As for `C[C@H](Nc1c(-c2c(F)cc(F)cc2F)c(Cl)nc2ncnn12)C(F)(F)F` [B], for the setting “4 ppm in the spray liquor”, the “Efficacy in % of the untreated control” value is listed as 11%.

As to `CC1CCN(c2c(-c3c(F)cc(F)cc3F)c(Cl)nc3ncnn23)CC1` [I, 5-chloro-7-(4-methylpiperidin-1-yl)-6-(2,4,6-trifluorophenyl)-[1,2,4]triazolo[1,5-a]pyrimidine], where the note is “4 ppm in the spray liquor”, the “Efficacy in % of the untreated control” value was determined as 56%.

As for `CC(C1CC1)C(O)(Cn1cncn1)c1ccc(Cl)cc1` (stereo not drawn) [II, 2-(4-chlorophenyl)-3-cyclopropyl-1-[1,2,4]triazol-1-ylbutan-2-ol], the “Efficacy in % of the untreated control” value was 0% (1 ppm in the spray liquor), 0% (4 ppm in the spray liquor) and 0% (16 ppm in the spray liquor).
